We go through 1 compound from patent US20030073815A1, “Adrenic acid receptor and uses thereof” (priority 2001, published 2003).

Assay [1] concerns oxygenation of arachidonic acid. Particulars: cited from earlier work.
Assay [2] has as its target T1, PFI-011 (Homo sapiens, UniProt Q8TDT2).
T1 construct: expressed in transfected cells
Briefly: Functional assay measuring intracellular calcium mobilisation (FLIPR). The assay is classed as cell-based. The conditions noted are these: PFI-011-transfected cells compared to mock-transfected cells; Fluo3, FLIPR. As to the method:
5×10^6 cells of a suitable host cell line, chosen to express a low number of endogenous receptors (e.g. HEK293 or CHO-K1) and engineered to stably express certain Gα proteins (e.g. mouse Gα15 (Wilkie, T. M. et al (1991) Proc. Natl. Acad. Sci. 88, 10049-10053), a chimeric Gql5/Gql5 α-subunit, or human Gα16 (Amatruda, TT 3rd et al (1991) Proc. Natl. Acad. Sci. 88, 5587-5591)), were transiently transfected with 7.5 μg of cDNA encoding PFI-011 in a suitable mammalian cell expression vector, or vector alone, using Lipofectamine Plus® reagent (Gibco BRL) as per the manufacturer's protocol. […]
Fluorescence Imaging Plate Reader (FLIPR®) technology was employed as a means to detect activation of PFI-011 by various potential GPCR agonists.
Cells were transfected as described in Example 3. […] The FLIPR® processing involved reading the fluorescence for all samples for 2 minutes; during this time the fluorescence baseline was determined for 10 seconds. The desired amount of compounds (i.e. potential GPCR agonists) was then automatically transferred to the wells and the fluorescence was continuously monitored for the remainder of the time. […]
Compounds capable of acting as agonists for the receptor were identified by them causing a transient rise in fluorescence, and therefore in intracellular calcium, in the cells.

Assay [3] relates to rabbits. Particulars: cited from earlier work.

Structures are written as SMILES. “Also recorded” adds a separate entry of the source.

T1 sequence (Q8TDT2 whole entry): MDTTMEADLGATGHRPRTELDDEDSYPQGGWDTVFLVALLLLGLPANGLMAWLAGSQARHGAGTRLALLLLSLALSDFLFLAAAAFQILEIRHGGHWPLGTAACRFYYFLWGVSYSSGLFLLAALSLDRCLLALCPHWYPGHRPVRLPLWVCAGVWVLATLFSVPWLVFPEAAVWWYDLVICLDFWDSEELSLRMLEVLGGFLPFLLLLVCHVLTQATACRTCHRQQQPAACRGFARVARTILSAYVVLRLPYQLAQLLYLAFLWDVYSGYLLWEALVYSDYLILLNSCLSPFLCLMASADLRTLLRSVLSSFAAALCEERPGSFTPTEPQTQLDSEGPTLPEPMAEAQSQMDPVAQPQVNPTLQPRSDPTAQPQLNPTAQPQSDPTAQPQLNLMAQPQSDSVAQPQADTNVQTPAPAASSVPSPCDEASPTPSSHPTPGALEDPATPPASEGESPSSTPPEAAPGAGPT

As for `CCCCC/C=C\C/C=C\C/C=C\C/C=C\CCCCCC(=O)O` [adrenic acid], the “oxygenation of arachidonic acid; synthesis of prostaglandins PGF2, PGE2 & PGD2” value in assay [1] is “inhibit the oxygenation of arachidonic acid”. In addition, in assay [2], the “response of PFI-011-expressing cells (fluorescence change over time, transient rise in intracellular calcium)” value is “response of PFI-011-expressing cells to adrenic acid; also recorded: responds to adrenic acid”. Further, in assay [3], the “blood pressure and renal flow” value is “reduce blood pressure and renal flow”.
